This note sets out measurements from patent US9550763B2, “Heterocyclic ring and carbocyclic derivative” (Shionogi & Co., Ltd., priority 2012, dated 2017).

The target of this experiment is human P2X3 receptor (Homo sapiens (Human), UniProt P56373). The experiment is described as follows: Evaluation of human P2X3 receptor inhibitory activity (Test Example 1-1, FDSS 3000, 96-well, 50 nM ATP). The class given is cell-based. The note with it: human P2X3 receptor in C6BU-1 cells; Test Example 1-1 (compounds I-001 to I-300). How it is done:
Stably expressing cell line (C6BU-1 cell transfected with human P2X3 receptor gene (GenBank accession number Y07683) was used. The cells were seeded in a 96-well microtiter plate at a concentration of 8000 cells/well and cultured in the medium (7.0% fetal bovine serum, 7.0% horse serum, 1% antibiotic and antifungal in DMEM) for one day at 37° C. under 5% carbon dioxide atmosphere. The medium was replaced with 4 μM Fluo-3-AM solution (20 mM HEPES, 137 mM NaCl, 5.27 mM KCl, 0.9 mM MgCl2, 1.26 mM CaCl2, 5.6 mM D-glucose, 2.5 mM probenecid, 1% BSA, and 0.08% Pluronic F-127, pH 7.5) and incubated at 37° C. under 5% dioxide carbon atmosphere for one hour. The plate was washed with washing buffer (20 mM HEPES, 137 mM NaCl, 5.27 mM KCl, 0.9 mM MgCl2, 1.26 mM CaCl2, 5.6 mM D-glucose, 2.5 mM probenecid, pH7.5), and each well was added with 40 μL of this buffer. The plate was placed in High-Throughput Screening System. FDSS 3000 (Hamamatsu Photonics K.K.). Measurement of fluorescence intensity by FDSS 3000 was started, and 40 μL of DMSO solutions containing different concentrations of the test compound as prepared by dilution with dilution buffer (20 mM HEPES, 137 mM NaCl, 5.27 mM KCl, 0.9 mM MgCl2, 1.26 mM CaCl2, 5.68 mM D-glucose, 2.5 mM probenecid, 0.1% Pluronic F-127, pH7.5) were dispensed to each well through the built-in automatic dispenser. Five minutes after, 50 nM ATP solution (50 μL) prepared by dilution with the dilution buffer was dispensed through the built-in automatic dispenser, and the measurement of fluorescence intensity was continued for 4 min. For each well, the specific maximum fluorescence intensity was calculated as the ratio of the maximum fluorescence intensity after addition of the ATP solution to the fluorescence intensity at the starting of the measurement. The 50% inhibitory concentration (IC50) was calculated under the assumption that the specific maximum fluorescence intensity without test compound is 0% inhibition and that the specific maximum fluorescence intensity when the dilution buffer was added in place of ATP solution is 100% inhibition, to evaluate the inhibitory activity of the test compound. FDSS software (Hamamatsu Photonics K.K.) was used for calculation of the specific maximum fluorescence intensity. IC50 was calculated using Microsoft Excel (Microsoft Corporation) and XLfit (idbs Ltd.)
The data of the compounds I-001 to I-300 are the results by the method mentioned in Test Example 1-1, and the data of the compounds I-301 to I-483 are the results by the method mentioned in Test Example 1-2.

Sequence of human P2X3 receptor (P56373 whole entry): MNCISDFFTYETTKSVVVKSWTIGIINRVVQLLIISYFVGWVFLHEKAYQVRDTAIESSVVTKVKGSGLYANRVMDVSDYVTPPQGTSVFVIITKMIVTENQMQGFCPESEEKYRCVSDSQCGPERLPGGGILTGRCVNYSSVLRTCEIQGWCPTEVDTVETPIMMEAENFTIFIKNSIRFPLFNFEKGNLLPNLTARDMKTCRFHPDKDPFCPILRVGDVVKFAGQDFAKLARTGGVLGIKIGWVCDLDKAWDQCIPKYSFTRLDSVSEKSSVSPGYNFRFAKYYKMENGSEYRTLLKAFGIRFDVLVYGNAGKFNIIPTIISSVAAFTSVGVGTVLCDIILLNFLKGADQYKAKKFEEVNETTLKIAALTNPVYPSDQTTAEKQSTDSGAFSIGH

`CCc1oc2ccc(/N=c3\[nH]cc(CC(C)=O)c(=O)n3Cc3ccc(Cl)cc3)cc2c1C` [Compound I-102] yielded an IC50 of 267 nM.
In the case of `CCc1oc2ccc(/N=c3\[nH]cc(CC(C)(C)O)c(=O)n3Cc3ccc(Cl)cc3)cc2c1C` [Compound I-103] it was 144 nM; in that of `CCC(=O)Nc1c[nH]/c(=N\c2ccc(Oc3cccc(C(=O)O)n3)cc2)n(Cc2ccc(Cl)cc2)c1=O` [Compound I-104], 3 nM.
The same measure for `CCC(=O)Nc1c[nH]/c(=N\c2ccc(Oc3ccnc(C(=O)O)c3)cc2)n(Cc2ccc(Cl)cc2)c1=O` [Compound I-105]: 5 nM.
In turn, `CCC(=O)Nc1c[nH]/c(=N\c2ccc(Oc3ccnc(C(N)=O)c3)cc2)n(Cc2ccc(Cl)cc2)c1=O` [Compound I-106] registered an IC50 of 7 nM.
In turn, `CCOC(=O)c1c[nH]/c(=N\c2ccc(Oc3ncccc3F)cc2)n(Cc2ccc(Cl)cc2)c1=O` [Compound I-107] registered an IC50 of 29 nM.
For `O=C(O)c1c[nH]/c(=N\c2ccc(Oc3ncccc3F)cc2)n(Cc2ccc(Cl)cc2)c1=O` [Compound I-108], it took 440 nM to reach half-maximal inhibition (IC50).
For `CN(C(=O)C1CCOCC1)c1c[nH]/c(=N\c2ccc(Oc3ccon3)cc2)n(Cc2ccc(Cl)cc2)c1=O` [Compound I-109], the IC50 turned out to be 34 nM.
In turn, `NC(=O)c1c[nH]/c(=N\c2ccc(Oc3ncccc3F)cc2)n(Cc2ccc(Cl)cc2)c1=O` [Compound I-110] yielded an IC50 of 27 nM.
For `O=C(NCCO)c1c[nH]/c(=N\c2ccc(Oc3ncccc3F)cc2)n(Cc2ccc(Cl)cc2)c1=O` [Compound I-111], inhibition was half-maximal at 22 nM (IC50).
In the case of `CCOC(=O)c1c[nH]/c(=N\c2ccc(Oc3cccc(F)n3)c(C)c2)n(Cc2ccc(Cl)cc2)c1=O` [Compound I-112], inhibition was half-maximal at 24 nM (IC50).
`COC(=O)[C@@H](C)Cn1c(=O)cc(Nc2ccc(Oc3ccccc3)cc2)n(Cc2ccc(Cl)cc2)c1=O` [Compound I-113]: the IC50 was found to be 187 nM.
`COC(=O)[C@@H](C)Cn1c(=O)cc(Nc2ccc(Oc3ccon3)cc2)n(Cc2ccc(Cl)cc2)c1=O` [Compound I-114] showed an IC50 of 17 nM.
`COC(=O)[C@@H](C)Cn1c(=O)cc(Nc2ccc(Oc3ncccc3F)cc2)n(Cc2ccc(Cl)cc2)c1=O` [Compound I-115] showed an IC50 of 9 nM.
Compound `COC(=O)[C@@H](C)Cn1c(=O)cc(Nc2ccc(Oc3cccc(F)n3)cc2)n(Cc2ccc(Cl)cc2)c1=O` [Compound I-116] displayed an IC50 of 6 nM.
In turn, `C[C@@H](Cn1c(=O)cc(Nc2ccc(Oc3ccccc3)cc2)n(Cc2ccc(Cl)cc2)c1=O)C(=O)O` [Compound I-117] yielded an IC50 of 26 nM.
On to `CCC(=O)Nc1c[nH]/c(=N\c2ccc(Oc3ccc(CO)nc3)cc2)n(Cc2ccc(Cl)cc2)c1=O` [Compound I-118], for which the IC50 was found to be 17 nM.
In the case of `C[C@@H](Cn1c(=O)cc(Nc2ccc(Oc3ncccc3F)cc2)n(Cc2ccc(Cl)cc2)c1=O)C(=O)O` [Compound I-119] it was 8 nM; in that of `C[C@@H](Cn1c(=O)cc(Nc2ccc(Oc3cccc(F)n3)cc2)n(Cc2ccc(Cl)cc2)c1=O)C(=O)O` [Compound I-120], 6 nM; in that of `C[C@@H](Cn1c(=O)cc(Nc2ccc(Oc3ccon3)cc2)n(Cc2ccc(Cl)cc2)c1=O)C(=O)O` [Compound I-121], 26 nM.
The compound `COC(=O)[C@@H](C)Cn1c(=O)cc(Nc2ccc(Oc3cccc(C#N)n3)c(F)c2)n(Cc2ccc(Cl)cc2)c1=O` [Compound I-122] registered an IC50 of 3 nM.
`O=C(Nc1c[nH]/c(=N\c2ccc(Oc3ccon3)cc2)n(Cc2ccc(F)cc2)c1=O)C1CCOCC1` [Compound I-123] had an IC50 of 24 nM.
Compound `CCn1c(=O)cc(Nc2ccc(Oc3cccc(C#N)n3)cn2)n(Cc2ccc(Cl)cc2)c1=O` [Compound I-124] had an IC50 of 19 nM.
In turn, `CCn1c(=O)cc(Nc2ccc(Oc3cccc(C(=O)O)n3)cn2)n(Cc2ccc(Cl)cc2)c1=O` [Compound I-125] returned an IC50 of 23 nM.
The same measure for `C[C@@H](Cn1c(=O)cc(Nc2ccc(Oc3cccc(C(N)=O)n3)c(F)c2)n(Cc2ccc(Cl)cc2)c1=O)C(=O)O` [Compound I-126]: 3 nM.

What is called IC50 is the point on the concentration scale where inhibition reaches its midpoint. Read a high IC50 as weaker potency in that assay.
